Measurements taken from ChEMBL document CHEMBL4359843, “Linear and Rationally Designed Stapled Peptides Abrogate TLR4 Pathway and Relieve Inflammatory Symptoms in Rheumatoid Arthritis Rat Model” (J Med Chem, 2019).
One block for each compound: values may come before it. Activity calls are given as the source filed them. The calls are words filed in the database; no cut-off is given here. Where a SMILES comes first, the peptide text is derived from it. Bridges are numbered along the chain shown (N, C = ends).

How the values were obtained:
TLR2/TLR6 (Homo sapiens) [1] = biological target: T1, TLR2/TLR6 (Homo sapiens) (UniProt O60603+Q9Y2C9); test: Antagonist activity at TLR2/6 in human THP1 cells assessed as reduction in FSL-1-induced IL6 secretion at 50 uM after 24 hrs by ELISA; format: cell-based
Rattus norvegicus [2] = test: Antiarthritic activity in Lewis rat model of complete Freund's adjuvant-induced arthritis assessed as reduction in mean articular index score at 1 nmol/g administered intra-articularly into knee joint for 6 weeks and measured every week during compound dosing; format: functional, organism-based
Rattus norvegicus [3] = test: Antiarthritic activity in Lewis rat model of complete Freund's adjuvant-induced arthritis assessed as regeneration of glycosaminoglycans at the border between bone and cartilage at 1 nmol/g administered intra-articularly into knee joint measured on third week by Safranin-O staining based histopathological analysis; format: functional, organism-based
Toll-like receptor 4 [4] = biological target: T2, Toll-like receptor 4 (Homo sapiens, UniProt O00206); test: Binding affinity to recombinant human TLR4 assessed as dissociation rate constant up to 200 uM by surface plasmon resonance analysis
Toll-like receptor 4 [5] = biological target: T2, Toll-like receptor 4; test: Antagonist activity at TLR4 (unknown origin)
Rattus norvegicus [6] = test: Antiarthritic activity in Lewis rat model of complete Freund's adjuvant-induced arthritis assessed as regain of normal feet physiology at 1 nmol/g administered intra-articularly into knee joint after 5 to 6 weeks by visual analysis; format: functional, organism-based
Toll-like receptor 4 [7] = biological target: T2, Toll-like receptor 4; test: Antagonist activity at TLR4 in human THP1 cells assessed as reduction in LPS-induced IkappaBalpha degradation at 50 uM after 15 to 30 mins by Western blot analysis; format: cell-based
[8] = biological target: T3, Toll-like receptor 4 (Mus musculus) (UniProt Q9QUK6); test: Antagonist activity at TLR4 in mouse RAW264.7 cells assessed as reduction in LPS-induced IL-6 secretion after 24 hrs by ELISA; format: cell-based
T3 sequence (whole entry): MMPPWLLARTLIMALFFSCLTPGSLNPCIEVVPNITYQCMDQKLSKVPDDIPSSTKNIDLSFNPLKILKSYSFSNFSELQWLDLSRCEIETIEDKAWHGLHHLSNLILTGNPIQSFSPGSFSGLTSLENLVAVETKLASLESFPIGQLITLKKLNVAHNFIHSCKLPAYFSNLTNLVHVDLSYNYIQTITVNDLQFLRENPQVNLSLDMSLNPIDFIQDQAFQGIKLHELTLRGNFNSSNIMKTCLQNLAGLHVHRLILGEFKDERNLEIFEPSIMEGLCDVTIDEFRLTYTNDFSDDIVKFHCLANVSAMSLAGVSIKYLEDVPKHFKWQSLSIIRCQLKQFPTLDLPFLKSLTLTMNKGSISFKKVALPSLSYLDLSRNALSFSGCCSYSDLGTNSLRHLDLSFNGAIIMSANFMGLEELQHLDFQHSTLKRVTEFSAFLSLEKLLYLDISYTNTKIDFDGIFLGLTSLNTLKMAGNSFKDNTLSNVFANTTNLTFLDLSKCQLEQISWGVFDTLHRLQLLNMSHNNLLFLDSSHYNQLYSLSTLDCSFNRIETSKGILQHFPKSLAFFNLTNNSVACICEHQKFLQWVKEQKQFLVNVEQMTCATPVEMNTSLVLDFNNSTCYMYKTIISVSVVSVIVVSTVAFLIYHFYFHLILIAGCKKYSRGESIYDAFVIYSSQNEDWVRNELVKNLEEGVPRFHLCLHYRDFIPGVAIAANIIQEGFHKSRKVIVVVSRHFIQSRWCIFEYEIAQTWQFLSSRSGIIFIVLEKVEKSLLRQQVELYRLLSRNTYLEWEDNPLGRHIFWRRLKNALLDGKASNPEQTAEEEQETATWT

Toll-like receptor 4 [9] = biological target: T2, Toll-like receptor 4; test: Binding affinity to recombinant human TLR4 using phage displayed compound by Phage-ELISA
Rattus norvegicus [10] = test: Antiarthritic activity in Lewis rat model of complete Freund's adjuvant-induced arthritis assessed as increase in osteocytes within lacunae at 1 nmol/g administered intra-articularly into knee joint after 4 to 6 week by H and E staining based histopathological analysis; format: functional, organism-based
[11] = biological target: T3, Toll-like receptor 4 (Mus musculus); test: Antagonist activity at TLR4 in mouse RAW264.7 cells assessed as reduction in LPS-induced TNFalpha secretion after 24 hrs by ELISA; format: cell-based
[12] = biological target: T3, Toll-like receptor 4 (Mus musculus); test: Antagonist activity at TLR4 in mouse RAW264.7 cells assessed as reduction in LPS-induced IFNbeta secretion at 5 to 50 uM after 24 hrs by ELISA; format: cell-based
Toll-like receptor 4 [13] = biological target: T2, Toll-like receptor 4; test: Binding affinity to recombinant human TLR4 by surface plasmon resonance analysis
Toll-like receptor 4 [14] = biological target: T2, Toll-like receptor 4; test: Antagonist activity at TLR4 (unknown origin) assessed as inhibition of proinflammatory cytokines
[15] = biological target: T3, Toll-like receptor 4 (Mus musculus); test: Antagonist activity at TLR4 in mouse RAW264.7 cells assessed as reduction in LPS-induced ERK phosphorylation at 80 uM after 15 to 30 mins by Western blot analysis; format: cell-based
[16] = biological target: T3, Toll-like receptor 4 (Mus musculus); test: Antagonist activity at TLR4 in mouse RAW264.7 cells assessed as reduction in LPS-induced cytosolic ROS level at 80 uM by DCF-DA staining based FACS analysis; format: cell-based
[17] = biological target: T3, Toll-like receptor 4 (Mus musculus); test: Antagonist activity at TLR4 in mouse BMDM cells assessed as reduction in LPS-induced IL6 secretion at 20 to 80 uM after 24 hrs by ELISA; format: cell-based
[18] = biological target: Toll-like receptor 1/2 (Homo sapiens) (UniProt O60603+Q15399); test: Antagonist activity at TLR2/1 in human PBMC cells assessed as reduction in PAM3CSK4-induced IL6 secretion at 20 to 80 uM after 24 hrs by ELISA; format: cell-based
[19] = biological target: T3, Toll-like receptor 4 (Mus musculus); test: Antagonist activity at TLR4 in mouse RAW264.7 cells assessed as reduction in LPS-induced extracellular NO secretion at 20 to 80 uM by spectrophotometric method; format: cell-based
[20] = biological target: T3, Toll-like receptor 4 (Mus musculus); test: Antagonist activity at TLR4 in mouse RAW264.7 cells assessed as reduction in LPS-induced NFkappaB p65 phosphorylation at 80 uM preincubated for 1 hr followed by LPS stimulation and measured after 30 mins by Alexafluor-488/Hoechst 33258 staining based immunofluorescence confocal microscopic method; format: cell-based
[21] = biological target: T3, Toll-like receptor 4 (Mus musculus); test: Antagonist activity at TLR4 in mouse RAW264.7 cells assessed as reduction in LPS-induced IRF3 phosphorylation at 80 uM after 120 to 240 mins by Western blot analysis; format: cell-based
RAW264.7 [22] = test: Cytotoxicity against mouse RAW264.7 cells assessed as reduction in cell viability at 100 uM after 24 hrs by MTT assay; format: cell-based; conditions: raw264.7, 24 h
Mus musculus = test: Antiinflammatory activity in C57BL/6J mouse assessed as reduction in LPS-induced TNFalpha secretion at 70 nmol/g, ip pretreated for 1 hr followed by LPS challenge and measured after 2 hrs by ELISA; format: functional, organism-based
RAW264.7 [23] = test: Cytotoxicity against mouse RAW264.7 cells assessed as reduction in cell viability at 20 to 80 uM after 24 hrs by MTT assay; format: cell-based; conditions: raw264.7, 24 h
TLR2/TLR6 (Homo sapiens) [24] = biological target: T1, TLR2/TLR6 (Homo sapiens); test: Antagonist activity at TLR2/6 in human PBMC cells assessed as reduction in FSL-1-induced IL6 secretion at 20 to 80 uM after 24 hrs by ELISA; format: cell-based
RAW264.7 [25] = test: Antagonist activity at TLR7/8 in mouse RAW264.7 cells assessed as reduction in R848-induced TNFalpha secretion at 20 to 80 uM after 24 hrs by ELISA; format: cell-based

T2 sequence (O00206 whole entry): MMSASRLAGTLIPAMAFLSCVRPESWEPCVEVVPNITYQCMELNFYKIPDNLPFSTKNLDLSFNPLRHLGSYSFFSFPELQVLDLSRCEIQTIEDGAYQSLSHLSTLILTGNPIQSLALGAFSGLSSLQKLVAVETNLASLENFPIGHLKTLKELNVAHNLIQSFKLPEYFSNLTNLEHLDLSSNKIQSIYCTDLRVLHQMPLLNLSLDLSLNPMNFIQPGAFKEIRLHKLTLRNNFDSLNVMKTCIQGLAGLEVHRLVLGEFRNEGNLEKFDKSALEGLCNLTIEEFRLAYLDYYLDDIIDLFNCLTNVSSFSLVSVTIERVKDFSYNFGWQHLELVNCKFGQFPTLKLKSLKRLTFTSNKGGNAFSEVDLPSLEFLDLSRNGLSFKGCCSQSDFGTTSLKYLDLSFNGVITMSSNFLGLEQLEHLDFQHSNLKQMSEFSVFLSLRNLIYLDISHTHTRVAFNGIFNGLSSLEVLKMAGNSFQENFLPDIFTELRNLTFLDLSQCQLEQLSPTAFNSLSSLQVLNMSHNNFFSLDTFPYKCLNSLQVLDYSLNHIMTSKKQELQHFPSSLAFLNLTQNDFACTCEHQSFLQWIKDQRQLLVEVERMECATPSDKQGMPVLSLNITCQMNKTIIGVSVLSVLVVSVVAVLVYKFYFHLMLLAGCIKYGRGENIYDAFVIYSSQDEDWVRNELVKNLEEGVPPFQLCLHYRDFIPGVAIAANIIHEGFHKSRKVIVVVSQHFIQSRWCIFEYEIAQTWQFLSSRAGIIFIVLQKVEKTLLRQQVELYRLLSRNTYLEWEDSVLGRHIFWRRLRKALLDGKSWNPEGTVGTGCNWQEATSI

- Activity (TLR2/TLR6 (Homo sapiens) [1]): Active
- koff (Toll-like receptor 4 [4]): 0.0014 s⁻¹
- IC50 (Toll-like receptor 4 [5]): 25 µM
- Activity (Toll-like receptor 4 [7]): Active
- Activity [8]: Dose-dependent effect
- Activity (Toll-like receptor 4 [9]): Active
- Activity [11]: Dose-dependent effect
- Activity [12]: Active
- Activity (Toll-like receptor 4 [13]): Dose-dependent effect
- IC50 (Toll-like receptor 4 [14]): 5 µM
Compound: CC[C@H](C)[C@@H]1NC(=O)[C@H](Cc2c[nH]c3ccccc23)NC(=O)[C@H](Cc2c[nH]c3ccccc23)NC(=O)[C@@H](NC(=O)[C@H](CO)NC(=O)[C@H](Cc2ccccc2)NC(=O)[C@@H](NC(=O)CNC(=O)[C@@H](N)CC(C)C)C(C)C)CC(=O)NCCCC[C@@H](C(=O)N[C@@H](CC(C)C)C(=O)N[C@H](C(=O)O)C(C)C)NC1=O (H-LGVFSDWWIKLV-OH; lactam 6-10)
- Activity (Rattus norvegicus [2]): Active
- Activity (Rattus norvegicus [3]): Active
- Activity (Rattus norvegicus [6]): Active
- Activity (Rattus norvegicus [10]): Active

- Activity [15]: Active
- Activity [16]: Active
- Activity [17]: Active
- koff (Toll-like receptor 4 [4]): 0.0113 s⁻¹
- IC50 (Toll-like receptor 4 [5]): 40 µM
- Activity [18]: inactive
- Activity [8]: Dose-dependent effect
- Activity [19]: Active
- Activity [20]: Active
- Activity (Toll-like receptor 4 [9]): Active
- Activity [11]: Dose-dependent effect
- Activity [21]: Active
- Activity (Toll-like receptor 4 [13]): Dose-dependent effect
- IC50 (Toll-like receptor 4 [14]): 20 µM
- Activity (TLR2/TLR6 (Homo sapiens) [24]): inactive
Compound: H-LGVFSSWWIKLV-OH
- Activity (RAW264.7 [22]): Toxic
- Activity (Mus musculus): Active
- Activity (RAW264.7 [23]): Non-Toxic
- Activity (RAW264.7 [25]): inactive
